Assay results reported in patent publication US20230295142A1, “NOVEL COMPOUNDS AS HISTONE DEACETYLASE 6 INHIBITOR, AND PHARMACEUTICAL COMPOSITION COMPRISING THE SAME” (CHONG KUN DANG PHARMACEUTICAL CORP., priority 2020, published 2023).

What was measured:
HDAC6 human recombinant = HDAC6 human recombinant (Homo sapiens (Human), UniProt Q9UBN7); test: HDAC6 enzyme activity inhibition (fluorimetric, in vitro); type: biochemical; conditions: samples at 0.1, 1, 10, 100 and 1000 nM; 37° C. 60 minutes
Procedure: (§1) A HDAC enzyme inhibitory capacity of a test material was measured by using HDAC1 Fluorimetric Drug Discovery Assay Kit (Enzolifesciences: BML-AK511) and HDAC6 human recombinant (Calbiochem: 382180). For a HDAC1 assay, samples were treated at a concentration of 100, 1000 and 10000 nM. For a HDAC6 assay, samples were treated at a concentration of 0.1, 1, 10, 100 and 1000 nM. After the above sample treatment, a reaction was continued at 37° C. for 60 minutes, treated with a developer, and subjected to reaction at 37° C. for 30 minutes, after which fluorescence intensity (Ex 390, Em 460) was measured by using FlexStatin3 (Molecular device).

HDAC1 = HDAC1 (Homo sapiens (Human), UniProt Q13547); test: HDAC1 enzyme activity inhibition (HDAC1 Fluorimetric Drug Discovery Assay Kit); type: biochemical; conditions: samples at 100, 1000 and 10000 nM; 37° C. 60 minutes
Procedure: as §1

Chain of HDAC1 (Q13547 whole entry): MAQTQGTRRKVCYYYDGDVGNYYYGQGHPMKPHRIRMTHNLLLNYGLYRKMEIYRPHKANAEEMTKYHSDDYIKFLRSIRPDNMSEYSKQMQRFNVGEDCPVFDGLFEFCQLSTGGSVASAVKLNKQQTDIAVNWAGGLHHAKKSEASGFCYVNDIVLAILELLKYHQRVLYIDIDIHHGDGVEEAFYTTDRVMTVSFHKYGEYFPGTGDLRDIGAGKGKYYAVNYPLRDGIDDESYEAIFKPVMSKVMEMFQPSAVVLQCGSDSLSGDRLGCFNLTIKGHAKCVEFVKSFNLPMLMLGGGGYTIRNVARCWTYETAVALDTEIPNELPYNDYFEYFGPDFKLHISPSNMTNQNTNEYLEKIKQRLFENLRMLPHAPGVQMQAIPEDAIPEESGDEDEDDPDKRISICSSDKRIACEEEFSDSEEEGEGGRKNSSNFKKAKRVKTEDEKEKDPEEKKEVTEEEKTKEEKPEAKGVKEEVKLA
Chain of HDAC6 human recombinant (Q9UBN7 whole entry): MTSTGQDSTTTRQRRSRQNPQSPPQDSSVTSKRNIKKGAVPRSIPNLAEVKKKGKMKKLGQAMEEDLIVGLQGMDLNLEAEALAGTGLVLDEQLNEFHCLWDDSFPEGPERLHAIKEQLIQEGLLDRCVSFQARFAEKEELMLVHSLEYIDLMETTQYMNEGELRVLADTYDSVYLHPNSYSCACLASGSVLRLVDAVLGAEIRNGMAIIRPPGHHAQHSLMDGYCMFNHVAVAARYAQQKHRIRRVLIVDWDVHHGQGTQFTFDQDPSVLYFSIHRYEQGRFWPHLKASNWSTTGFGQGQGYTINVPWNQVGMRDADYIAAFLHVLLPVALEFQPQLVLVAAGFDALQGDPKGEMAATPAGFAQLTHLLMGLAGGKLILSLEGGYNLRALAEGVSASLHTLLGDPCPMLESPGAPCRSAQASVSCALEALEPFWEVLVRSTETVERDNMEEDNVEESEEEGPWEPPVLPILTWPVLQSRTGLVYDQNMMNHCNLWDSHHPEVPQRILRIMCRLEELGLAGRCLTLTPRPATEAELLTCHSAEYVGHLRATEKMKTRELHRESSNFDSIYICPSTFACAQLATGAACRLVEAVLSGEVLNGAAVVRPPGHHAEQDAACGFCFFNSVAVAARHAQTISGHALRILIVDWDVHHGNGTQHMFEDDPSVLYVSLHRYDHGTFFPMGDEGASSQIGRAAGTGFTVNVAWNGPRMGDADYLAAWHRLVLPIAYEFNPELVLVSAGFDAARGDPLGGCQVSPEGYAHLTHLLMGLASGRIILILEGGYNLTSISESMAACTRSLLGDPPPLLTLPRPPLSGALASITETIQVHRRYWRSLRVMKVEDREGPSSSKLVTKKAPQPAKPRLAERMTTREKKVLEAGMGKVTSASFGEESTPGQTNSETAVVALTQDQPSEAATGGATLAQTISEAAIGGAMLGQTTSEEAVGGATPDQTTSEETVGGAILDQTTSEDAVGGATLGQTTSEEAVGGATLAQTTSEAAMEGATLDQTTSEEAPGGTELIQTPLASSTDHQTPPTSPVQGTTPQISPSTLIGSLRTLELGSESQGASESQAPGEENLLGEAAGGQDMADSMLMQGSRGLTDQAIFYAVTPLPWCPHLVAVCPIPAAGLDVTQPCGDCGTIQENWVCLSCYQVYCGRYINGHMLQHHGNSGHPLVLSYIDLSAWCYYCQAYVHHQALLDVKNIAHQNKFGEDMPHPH

| Structure (SMILES) | IC50 (HDAC6 human recombinant) | IC50 (HDAC1) |
| --- | --- | --- |
| CC(C)N1CC2(C1)C(=O)N(Cc1ccc(-c3nnc(C(F)F)o3)cn1)C(=O)N2c1ccccc1 [Compound 22, 7-((5-(5-(difluoromethyl)-1,3,4-oxadiazol-2-yl)pyridin-2-yl)methyl)-2-isopropyl-5-phenyl-2,5,7-triazaspiro[3.4]octan-6,8-dione] | 191 nM | > 10000 nM |
| O=C1N(Cc2ccc(-c3nnc(C(F)F)o3)cn2)C(=O)C2(CCC2)N1c1ccccc1 [Compound 24, 7-((5-(5-(difluoromethyl)-1,3,4-oxadiazol-2-yl)pyridin-2-yl)methyl)-5-phenyl-5,7-diazaspiro[3.4]octan-6,8-dione] | 56 nM | > 10000 nM |
| CC1(C)C(=O)N(Cc2ccc(-c3nnc(C(F)F)o3)cn2)C(=O)N1c1ccc(-c2ccoc2)cc1 [Compound 25, 3-((5-(5-(difluoromethyl)-1,3,4-oxadiazol-2-yl)pyridin-2-yl)methyl)-1-(4-(furan-3-yl)phenyl)-5,5-dimethylimidazolidin-2,4-dione] | 106 nM | > 10000 nM |
| CC1(C)C(=O)N(Cc2ccc(-c3nnc(C(F)F)o3)cn2)C(=O)N1c1ccc(-c2ccncc2)cc1 [Compound 26, 3-((5-(5-(difluoromethyl)-1,3,4-oxadiazol-2-yl)pyridin-2-yl)methyl)-5,5-dimethyl-1-(4-(pyridin-4-yl)phenyl)imidazolidin-2,4-dione] | 48 nM | > 10000 nM |
| CC1(C)C(=O)N(Cc2ccc(-c3nnc(C(F)F)o3)cn2)C(=O)N1c1ccc(-c2cccnc2)cc1 [Compound 27, 3-((5-(5-(difluoromethyl)-1,3,4-oxadiazol-2-yl)pyridin-2-yl)methyl)-5,5-dimethyl-1-(4-(pyridin-3-yl)phenyl)imidazolidin-2,4-dione] | 55 nM | > 10000 nM |
| CC1(C)C(=O)N(Cc2ccc(-c3nnc(C(F)F)o3)cn2)C(=O)N1c1ccc(-c2cccc(F)c2)cc1 [Compound 28, 3-((5-(5-(difluoromethyl)-1,3,4-oxadiazol-2-yl)pyridin-2-yl)methyl)-1-(3′-fluoro-[1,1′-biphenyl]-4-yl)-5,5-dimethylimidazolidin-2,4-dione] | 168 nM | > 10000 nM |
| CC1(C)C(=O)N(Cc2ccc(-c3nnc(C(F)F)o3)cn2)C(=O)N1c1ccc(-c2ccccc2F)cc1 [Compound 29, 3-((5-(5-(difluoromethyl)-1,3,4-oxadiazol-2-yl)pyridin-2-yl)methyl)-1-(2′-fluoro-[1,1′-biphenyl]-4-yl)-5,5-dimethylimidazolidin-2,4-dione] | 165 nM | > 10000 nM |
| CC(C)(C)OC(=O)n1ccc2c(N3C(=O)N(Cc4ccc(-c5nnc(C(F)F)o5)cn4)C(=O)C3(C)C)cccc21 [Compound 30, tert-butyl 4-(3-((5-(5-(difluoromethyl)-1,3,4-oxadiazol-2-yl)pyridin-2-yl)methyl)-5,5-dimethyl-2,4-dioxoimidazolidin-1-yl)-1H-indol-1-carboxylate] | 578 nM | > 10000 nM |
| CC(=O)Nc1cccc(N2C(=O)N(Cc3ccc(-c4nnc(C(F)F)o4)cn3)C(=O)C2(C)C)c1 [Compound 36, N-(3-(3-((5-(5-(difluoromethyl)-1,3,4-oxadiazol-2-yl)pyridin-2-yl)methyl)-5,5-dimethyl-2,4-dioxoimidazolidin-1-yl)phenyl)acetamide] | 35 nM | > 10000 nM |
| CC(=O)N1CCc2c1cccc2N1C(=O)N(Cc2ccc(-c3nnc(C(F)F)o3)cn2)C(=O)C1(C)C [Compound 37, 1-(1-acetylindolin-4-yl)-3-((5-(5-(difluoromethyl)-1,3,4-oxadiazol-2-yl)pyridin-2-yl)methyl)-5,5-dimethylimidazolidin-2,4-dione] | 68 nM | > 10000 nM |

Other lines, results leading:

| IC50 (HDAC6 human recombinant) | IC50 (HDAC1) | Structure (SMILES) |
| --- | --- | --- |
| 369 nM | > 10000 nM | CC(=O)N1CC2(C1)C(=O)N(Cc1ccc(-c3nnc(C(F)F)o3)cn1)C(=O)N2c1ccccc1 [Compound 23, 2-acetyl-7-((5-(5-(difluoromethyl)-1,3,4-oxadiazol-2-yl)pyridin-2-yl)methyl)-5-phenyl-2,5,7-triazaspiro[3.4]octan-6,8-dione] |
| 316 nM | > 10000 nM | CC(C)(C)OC(=O)N1CCc2c1cccc2N1C(=O)N(Cc2ccc(-c3nnc(C(F)F)o3)cn2)C(=O)C1(C)C [Compound 31, tert-butyl 4-(3-((5-(5-(difluoromethyl)-1,3,4-oxadiazol-2-yl)pyridin-2-yl)methyl)-5,5-dimethyl-2,4-dioxoimidazolidin-1-yl)indolin-1-carboxylate] |
| 55 nM | > 10000 nM | CC1(C)C(=O)N(Cc2ccc(-c3nnc(C(F)F)o3)cn2)C(=O)N1c1cccc2[nH]ccc12 [Compound 32, 3-((5-(5-(difluoromethyl)-1,3,4-oxadiazol-2-yl)pyridin-2-yl)methyl)-1-(1H-indol-4-yl)-5,5-dimethylimidazolidin-2,4-dione] |
| 58 nM | > 10000 nM | CC1(C)C(=O)N(Cc2ccc(-c3nnc(C(F)F)o3)cn2)C(=O)N1c1cccc2c1CCN2 [Compound 33, 3-((5-(5-(difluoromethyl)-1,3,4-oxadiazol-2-yl)pyridin-2-yl)methyl)-1-(indolin-4-yl)-5,5-dimethylimidazolidin-2,4-dione] |
| 46 nM | > 10000 nM | CC1(C)C(=O)N(Cc2ccc(-c3nnc(C(F)F)o3)cn2)C(=O)N1c1cccc([N+](=O)[O-])c1 [Compound 34, 3-((5-(5-(difluoromethyl)-1,3,4-oxadiazol-2-yl)pyridin-2-yl)methyl)-5,5-dimethyl-1-(3-nitrophenyl)imidazolidin-2,4-dione] |
| 52 nM | > 10000 nM | CC1(C)C(=O)N(Cc2ccc(-c3nnc(C(F)F)o3)cn2)C(=O)N1c1cccc(N)c1 [Compound 35, 1-(3-aminophenyl)-3-((5-(5-(difluoromethyl)-1,3,4-oxadiazol-2-yl)pyridin-2-yl)methyl)-5,5-dimethylimidazolidin-2,4-dione] |
